Measurements reported in patent US9744171B2, “Positive allosteric modulators for melanocortin receptors” (Vanderbilt University, priority 2012, dated 2017).

Test: High fat diet-induced weight gain in mice, osmotic minipump treatment
Assay type: in vivo
Protocol: FIG. 6 provides a bar graph showing a reduction in high fat diet-induced weight gain in mice by treatment with VU0055768. Wild type 12 week old male C57BL/6J mice were placed on a high fat diet for 5 days. Mice were then implanted subcutaneously with Alzet csmotic minipumps filled with vehicle (25% DMSO, 25% saline, 50% EtOH; n=6) or VU0055768 (25% compound in DMSO, 25% saline, 50% EtOH, n=5) so as to deliver 2.5 mg/kg/day of VU0055768. Mice were maintained on ad libitum access to water and high fat chow, and body weights were measured at the end of an additional 9 days. Bars indicate the mean and standard error of the data, and show a greater than 50% reduction in weight gain as a result of treatment with VU0055768
Eleven 12 weeks old Wt C57 mice were placed on high fat diet for 5 days. Osmotic pumps were filled with vehicle (25% DMSO, 25% saline, 50% EtOH) or VU0055768 (25% compound in DMSO, 25% saline, 50% EtOH) as to deliver 2.5 mg/kg/day, and were then inserted subcutaneously (6 vehicle, 5 compound) into the mice. The mice were fed ad-libidum with high fat diet. Mouse and food weight was measured daily. Statistical analysis of the results was t-test.

With `NCCc1c(-c2ccccc2)n(-c2ccccc2)c2ccccc12` [VU0055768] the “reduction in weight gain” value (C57BL/6J mice on high fat diet, 2.5 mg/kg/day subcutaneous osmotic minipump, body weights after additional 9 days, vs vehicle) was “greater than 50%” and the weight gain (Wt C57 mice on high fat diet, 2.5 mg/kg/day subcutaneous osmotic pump, t-test vs vehicle) was “significantly reduced weight gain”.
